# Test results reported in patent US20240217981A1, “CRYSTALLINE COMPOUND OF MUSCARINIC ACETYLCHOLINE M1 RECEPTOR ANTAGONISTS” (Pipeline Therapeutics, Inc., priority 2021, published 2024).
# Where two headings read alike, the source gives them in different places.
# Experiments:
# human M1 receptor = target: T1, human M1 receptor (Homo sapiens, UniProt P11229); assay: In vitro functional assay of muscarinic acetylcholine receptor activity (aequorin calcium flux, reversal of acetylcholine EC50 response); format: cell-based
# T1 sequence (P11229 1-460): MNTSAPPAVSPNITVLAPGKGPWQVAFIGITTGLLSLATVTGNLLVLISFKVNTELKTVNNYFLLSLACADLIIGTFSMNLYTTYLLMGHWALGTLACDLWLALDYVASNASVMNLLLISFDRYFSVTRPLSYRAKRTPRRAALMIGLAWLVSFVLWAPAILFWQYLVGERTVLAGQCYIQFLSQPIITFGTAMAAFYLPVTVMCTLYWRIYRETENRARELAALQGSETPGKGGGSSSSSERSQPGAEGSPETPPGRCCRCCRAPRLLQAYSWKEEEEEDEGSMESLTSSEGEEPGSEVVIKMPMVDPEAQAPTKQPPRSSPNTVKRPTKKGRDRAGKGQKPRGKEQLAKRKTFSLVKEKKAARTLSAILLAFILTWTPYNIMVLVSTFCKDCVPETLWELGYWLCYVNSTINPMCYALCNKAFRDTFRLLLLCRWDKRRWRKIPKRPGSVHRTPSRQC
# Experimental: CHO-K1 cells stably expressing human M1 receptor with aequorin (Perkin Elmer) were grown in F12 media (Gibco) containing 10% FBS (ATCC), 0.4 mg/mL geneticin (Sigma-Aldrich) and 0.25 mg/mL Zeocin (Invitrogen). Cells were grown as per the manufacturer's protocol. For compound testing, cells were grown to confluency and detached gently with Accutase (Sigma-Aldrich) followed by centrifugation for 5 min at 150×g. Cells were then re-suspended in assay buffer (i.e. DMEM/F-12 HEPES without phenol red (Invitrogen) with 0.1% BSA (Sigma-Aldrich)) at a density of 5×10^6 cells/ml. Under sterile conditions, 5 μM coelenterazine (Invitrogen) was added to the cells, mixed, then incubated at room temperature protected from light, with gentle agitation, for 4 h.
# Primary compound plates were prepared in 100% DMSO in opaque 96-well plates (VWR) and serially diluted in half log increments. Secondary compound plates were prepared at 3× concentration in assay buffer. […]
# The compound and cells were incubated at room temperature for 30 min in the dark. Acetylcholine at the EC50 concentration was added and calcium flux measured using a FlexStation 3 (Molecular Devices). Sigmoidal dose-response curves were generated by measuring […] over 40 sec and calculating the area under the curve. […]
# human M2 receptor = target: T2, human M2 receptor (Homo sapiens, UniProt P08172); assay: as above; format: cell-based; conditions: CHO-K1 cells expressing human M2 receptor with aequorin; acetylcholine at EC50
# T2 sequence (P08172 1-466): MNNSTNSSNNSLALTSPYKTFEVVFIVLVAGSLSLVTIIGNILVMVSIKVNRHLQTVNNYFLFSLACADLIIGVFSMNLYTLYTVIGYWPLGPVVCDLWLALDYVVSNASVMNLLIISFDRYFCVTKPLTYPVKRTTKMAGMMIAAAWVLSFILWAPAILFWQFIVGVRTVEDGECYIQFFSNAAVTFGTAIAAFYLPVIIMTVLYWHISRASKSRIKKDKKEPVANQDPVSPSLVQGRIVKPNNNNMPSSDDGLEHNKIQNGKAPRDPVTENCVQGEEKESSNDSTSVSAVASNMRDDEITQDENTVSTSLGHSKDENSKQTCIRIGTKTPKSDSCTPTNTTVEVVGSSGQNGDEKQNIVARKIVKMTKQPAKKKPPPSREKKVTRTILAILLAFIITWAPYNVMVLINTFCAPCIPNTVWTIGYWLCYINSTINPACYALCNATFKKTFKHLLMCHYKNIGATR
# Experimental: (§1) Primary compound plates were prepared in 100% DMSO in opaque 96-well plates (VWR) and serially diluted in half log increments. Secondary compound plates were prepared at 3× concentration in assay buffer. The compound (6-(3-(4,4-difluoro-4-(2-methoxypyridin-4-yl)butanoyl)-3,8-diazabicyclo[3.2.1]octan-8-yl)nicotinonitrile) was added to white, clear bottom tissue culture treated 96-well plates (Fisher Scientific). Coelenterazine-loaded cells were then added at 5×10^5 cells/well.
# (§2) The compound and cells were incubated at room temperature for 30 min in the dark. Acetylcholine at the EC50 concentration was added and calcium flux measured using a FlexStation 3 (Molecular Devices). Sigmoidal dose-response curves were generated by measuring […] over 40 sec and calculating the area under the curve. Dose response curves and IC50 values were generated using Prism (GraphPad). The compound was tested at a final concentration range of […] in 0.10% DMSO.
# (§3) CHO-K1 cells stably expressing human M2, M3 and M4 receptors, respectively, with aequorin (Perkin Elmer) were used to assess a test compound's ability to dose-dependently reverse the EC50 acetylcholine response. The IC50 of the compound was calculated from the dose response curve.
# human M3 receptor = human M3 receptor (Homo sapiens, UniProt P20309); assay: as above; format: cell-based
# Experimental: as §1, §2, §3
# human M4 receptor = target: T3, human M4 receptor (Homo sapiens, UniProt P08173); assay: as above; format: cell-based
# T3 sequence (P08173 1-479): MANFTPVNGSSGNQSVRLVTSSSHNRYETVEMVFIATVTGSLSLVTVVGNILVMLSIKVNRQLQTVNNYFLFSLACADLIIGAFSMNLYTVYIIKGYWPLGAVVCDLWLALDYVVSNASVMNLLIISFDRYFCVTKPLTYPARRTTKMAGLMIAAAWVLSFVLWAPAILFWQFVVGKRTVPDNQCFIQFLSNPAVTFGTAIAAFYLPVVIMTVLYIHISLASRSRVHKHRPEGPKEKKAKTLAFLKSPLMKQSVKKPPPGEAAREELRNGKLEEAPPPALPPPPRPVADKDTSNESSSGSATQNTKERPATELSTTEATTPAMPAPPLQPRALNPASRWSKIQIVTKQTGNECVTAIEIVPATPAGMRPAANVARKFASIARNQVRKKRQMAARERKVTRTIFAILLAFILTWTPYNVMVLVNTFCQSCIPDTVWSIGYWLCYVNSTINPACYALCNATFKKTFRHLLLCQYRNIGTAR
# Experimental: as §1, §2, §3
# [1] = Kinetic solubility evaluation; format: physicochemical; conditions: for solubility / solubility at 1 h / solubility at 4 h / solubility at 24 h: thermodynamic from solid; for FC (Form change): residual solid by XRPD; for solubility at 1 h / solubility at 4 h / solubility at 24 h: read-out: S (Solubility of freebase)
# Experimental: In these experiments, about 20 mg of Freebase Type A was suspended in 4 mL of FaSSIF, FeSSIF, SGF and H2O, respectively. After rolling at 37° C. for 1 hr, 4 hrs and 24 hrs, the suspension was centrifuged and filtered through a 0.45 μm PTFE membrane. The residual solids were tested by XRPD and the supernatant was tested by HPLC and pH meter. Detailed procedure can be found in Table 15.
# [2] = Physicochemical stability evaluation; conditions: for Form change: XRPD
# Experimental: In these experiments, about 10 mg of Freebase Type A was stored at 25° C./60% RH, 40° C./75% RH for one week and 60° C./sealed for 24 hrs. After storage, the solids were tested by XRPD and HPLC.
# [3] = Hygroscopicity evaluation by DVS test; format: physicochemical
# Experimental: Hygroscopicity of Freebase Type A was evaluated by DVS test. […] For the minus weight change observed in the desorption curve, it might be related to sample loss or instrument fluctuation.
# [4] = 25° C./60% RH, 40° C./75% RH for one week and 60° C./sealed for 24 hrs
# human M3 receptor, sequence (P20309 whole entry): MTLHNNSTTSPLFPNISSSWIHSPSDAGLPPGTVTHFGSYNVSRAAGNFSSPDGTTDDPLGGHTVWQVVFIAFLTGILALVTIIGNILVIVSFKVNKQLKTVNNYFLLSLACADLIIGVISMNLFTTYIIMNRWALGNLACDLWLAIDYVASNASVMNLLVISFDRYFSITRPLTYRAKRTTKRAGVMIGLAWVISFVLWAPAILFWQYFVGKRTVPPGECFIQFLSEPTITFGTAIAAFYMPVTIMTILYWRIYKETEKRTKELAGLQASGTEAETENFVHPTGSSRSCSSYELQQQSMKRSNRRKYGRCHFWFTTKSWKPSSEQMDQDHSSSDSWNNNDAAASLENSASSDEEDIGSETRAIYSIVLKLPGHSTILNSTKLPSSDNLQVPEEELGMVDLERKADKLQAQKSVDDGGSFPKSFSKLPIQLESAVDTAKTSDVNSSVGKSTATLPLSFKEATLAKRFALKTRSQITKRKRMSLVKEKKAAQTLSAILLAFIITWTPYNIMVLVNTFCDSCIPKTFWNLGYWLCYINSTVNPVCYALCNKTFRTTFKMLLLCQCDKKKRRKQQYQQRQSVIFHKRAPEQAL
compound,measurement,setting,value
"COc1cc(C(F)(F)CCC(=O)N2CC3CCC(C2)N3c2ccc(C#N)cn2)ccn1 [Compound, 6-(3-(4,4-difluoro-4-(2-methoxypyridin-4-yl)butanoyl)-3,8-diazabicyclo[3.2.1]octan-8-yl)nicotinonitrile]",IC50,human M1 receptor,< 0.01 µM
same,IC50,human M2 receptor,1 to 10 µM
same,IC50,human M3 receptor,0.1 to 1 µM
same,IC50,human M4 receptor,0.1 to 1 µM
same,"solubility rank order of media, from high to low","[1]; FaSSIF, FeSSIF, SGF and H2O, 37° C.",SGF>FeSSIF>FaSSIF>H2O
same,form change after rolling in tested media,"[1]; XRPD, tested media, 1, 4, and 24 hrs",no form change was observed
same,solubility,"[1]; pH 1.77, simulated gastric fluid, SGF, 37° C., over 1 hr, 4 hrs and 24 hrs, read-out: solubility in SGF",≤ 150 µg/mL
same,solubility,"[1]; pH 6.95, water, H2O, 37° C., read-out: solubility in H2O",20 µg/mL
same,FC (Form change),"[1]; FaSSIF, 37° C., 1 hr",No
same,FC (Form change),"[1]; FaSSIF, 37° C., 4 hrs",No
same,FC (Form change),"[1]; FaSSIF, 37° C., 24 hrs",No
same,FC (Form change),"[1]; FeSSIF, 37° C., 1 hr",No
same,FC (Form change),"[1]; FeSSIF, 37° C., 4 hrs",No
same,FC (Form change),"[1]; FeSSIF, 37° C., 24 hrs",No
same,FC (Form change),"[1]; H2O, 37° C., 1 hr",No
same,FC (Form change),"[1]; H2O, 37° C., 4 hrs",No
same,FC (Form change),"[1]; H2O, 37° C., 24 hrs",No
same,FC (Form change),"[1]; SGF, 37° C., 1 hr",No
same,FC (Form change),"[1]; SGF, 37° C., 4 hrs",No
same,FC (Form change),"[1]; SGF, 37° C., 24 hrs",No
same,solubility at 1 h,"[1]; simulated gastric fluid, SGF (pH 1.77), 37° C., 1 hr",140 µg/mL
same,solubility at 4 h,"[1]; simulated gastric fluid, SGF (pH 1.77), 37° C., 4 hrs",150 µg/mL
same,solubility at 24 h,"[1]; simulated gastric fluid, SGF (pH 1.77), 37° C., 24 hrs",140 µg/mL
same,solubility at 1 h,"[1]; FaSSIF (pH 6.47), 37° C., 1 hr",30 µg/mL
same,solubility at 4 h,"[1]; FaSSIF (pH 6.47), 37° C., 4 hrs",30 µg/mL
same,solubility at 24 h,"[1]; FaSSIF (pH 6.47), 37° C., 24 hrs",30 µg/mL
same,solubility at 1 h,"[1]; FeSSIF (pH 4.99), 37° C., 1 hr",60 µg/mL
same,solubility at 4 h,"[1]; FeSSIF (pH 4.99), 37° C., 4 hrs",60 µg/mL
same,solubility at 24 h,"[1]; FeSSIF (pH 4.99), 37° C., 24 hrs",60 µg/mL
same,solubility at 1 h,"[1]; water, H2O (pH 6.95), 37° C., 1 hr",20 µg/mL
same,solubility at 4 h,"[1]; water, H2O (pH 6.95), 37° C., 4 hrs",20 µg/mL
same,solubility at 24 h,"[1]; water, H2O (pH 6.95), 37° C., 24 hrs",20 µg/mL
same,HPLC purity Of initial,"[2]; 25° C./60% RH, 1 w",100.00%
same,HPLC purity after storage,"[2]; 25° C./60% RH, 1 w",100.00 area %
same,form change after storage (XRPD),[2]; [4],no form change was observed
same,purity decrease after storage (HPLC),[2]; [4],no purity decrease was detected
same,HPLC purity Of initial,"[2]; 40° C./75% RH, 1 w",100.00%
same,HPLC purity after storage,"[2]; 40° C./75% RH, 1 w",100.00 area %
same,HPLC purity Of initial,"[2]; 60° C./sealed, 24 hrs",100.00%
same,HPLC purity after storage,"[2]; 60° C./sealed, 24 hrs",100.00 area %
same,Form change,"[2]; 25° C./60% RH, 1 w",No
same,Form change,"[2]; 40° C./75% RH, 1 w",No
same,Form change,"[2]; 60° C./sealed, 24 hrs",No
same,water uptake,"[3]; 80% RH/25° C., sorption cycle from 0% RH to 95% RH",0.01%
same,hygroscopicity,[3]; DVS test,non-hygroscopic
same,form change after the DVS test,[3]; XRPD,no form change was observed
